In ChEMBL document CHEMBL1201862, “PubChem BioAssay data set” (2004):
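Interpolation was linear, between the two tested concentrations surrounding the appropriate level; five concentrations were tested over 48 hours in 96-well plates. Abbreviation: GI50, concentration required for 50% inhibition of growth.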 Calls of active or inactive are those of the source. Cut-off read from the data, not from the text of the source: active = GI50 up to about 1.1 µM and inactive = higher.

What was measured:
Assay in all cases: NCI tumour cell line growth inhibition, 48 h
PC-3 = test system: PC-3
SW-620 = test system: SW-620
SK-MEL-5 = test system: SK-MEL-5
MDA-N = test system: MDA-N
M14 = test system: M14
MDA-MB-435 = test system: MDA-MB-435
EKVX = test system: EKVX
NCI/ADR-RES = test system: NCI/ADR-RES
NCI-H23 = test system: NCI-H23
A498 = test system: A498
NCI-H522 = test system: NCI-H522
SK-MEL-28 = test system: SK-MEL-28
Malme-3M = test system: Malme-3M
UO-31 = test system: UO-31
NCI-H226 = test system: NCI-H226
HT-29 = test system: HT-29
UACC-257 = test system: UACC-257
BT-549 = test system: BT-549
LXFL 529 = test system: LXFL 529
SNB-78 = test system: SNB-78

| SMILES | GI50 (PC-3) | GI50 (SW-620) | GI50 (SK-MEL-5) | GI50 (MDA-N) | GI50 (M14) | GI50 (MDA-MB-435) | GI50 (EKVX) | GI50 (NCI/ADR-RES) | GI50 (NCI-H23) | GI50 (A498) | GI50 (NCI-H522) | GI50 (SK-MEL-28) | GI50 (Malme-3M) | GI50 (UO-31) | GI50 (NCI-H226) | GI50 (HT-29) | GI50 (UACC-257) | GI50 (BT-549) | GI50 (LXFL 529) | GI50 (SNB-78) |
| --- | --- | --- | --- | --- | --- | --- | --- | --- | --- | --- | --- | --- | --- | --- | --- | --- | --- | --- | --- | --- |
| COc1ccc(N2C(=O)C3c4[nH]c5ccc(F)cc5c4C4CCC(C(C)(C)C)CC4C3C2=O)cc1 (stereo unspecified) | 7.33 µM (inactive) | 7.26 µM (inactive) | > 10 µM (inactive) | > 10 µM (inactive) | 7.85 µM (inactive) | > 10 µM (inactive) | > 10 µM (inactive) | 9.08 µM (inactive) | > 10 µM (inactive) | > 10 µM (inactive) | 6.87 µM (inactive) | > 10 µM (inactive) | > 10 µM (inactive) | > 10 µM (inactive) | > 10 µM (inactive) | 6.28 µM (inactive) |  |  |  |  |
| O=[N+]([O-])c1ccc(S(=O)(=O)N=Ic2ccccc2)cc1 | > 100 µM (inactive) | > 100 µM (inactive) | > 100 µM (inactive) | > 100 µM (inactive) | > 100 µM (inactive) | > 100 µM (inactive) | 97.7 µM (inactive) | > 100 µM (inactive) | > 100 µM (inactive) | > 100 µM (inactive) | > 100 µM (inactive) | > 100 µM (inactive) | > 100 µM (inactive) | > 100 µM (inactive) | > 100 µM (inactive) | > 100 µM (inactive) | > 100 µM (inactive) | > 100 µM (inactive) |  |  |
| NCc1ccccc1-c1c2nc(c(-c3ccccc3CN)c3ccc([nH]3)c(-c3ccccc3CN)c3nc(c(-c4ccccc4CN)c4ccc1[nH]4)C=C3)C=C2 |  | 34.1 µM (inactive) | 22.9 µM (inactive) |  | 21 µM (inactive) |  | 23.8 µM (inactive) |  | 21.8 µM (inactive) |  |  | 19 µM (inactive) |  | 18.5 µM (inactive) | 13.9 µM (inactive) | 28.2 µM (inactive) | 20.3 µM (inactive) |  | 22.1 µM (inactive) | 16.7 µM (inactive) |
| O=C1C(=O)N(C2CCCCC2)C(=S)N1C1CCCCC1 | > 100 µM (inactive) | > 100 µM (inactive) | > 100 µM (inactive) | > 100 µM (inactive) |  | > 100 µM (inactive) | > 100 µM (inactive) | > 100 µM (inactive) | > 100 µM (inactive) | > 100 µM (inactive) | 7.76 µM (inactive) | > 100 µM (inactive) | > 100 µM (inactive) | > 100 µM (inactive) | > 100 µM (inactive) | > 100 µM (inactive) | > 100 µM (inactive) |  |  |  |
| CCOC(=O)c1csc(NC(=O)CN2CCCCC2)n1 | > 100 µM (inactive) | > 100 µM (inactive) | > 100 µM (inactive) | > 100 µM (inactive) | > 100 µM (inactive) | > 100 µM (inactive) | > 100 µM (inactive) | > 100 µM (inactive) | > 100 µM (inactive) | > 100 µM (inactive) |  | > 100 µM (inactive) |  | > 100 µM (inactive) |  | > 100 µM (inactive) | > 100 µM (inactive) |  |  |  |
| O=C(/C=C1\Nc2ncccc2N=C1CC(=O)c1ccccc1)c1ccccc1 | 10.1 µM (inactive) | 5.52 µM (inactive) | 4.16 µM (inactive) | 7.52 µM (inactive) | 7.35 µM (inactive) | 5.93 µM (inactive) |  | 4.56 µM (inactive) | 23.1 µM (inactive) | 7.35 µM (inactive) | 11 µM (inactive) | 32.3 µM (inactive) | 37.4 µM (inactive) | 5.47 µM (inactive) |  | 6.89 µM (inactive) | 65.6 µM (inactive) | 2.71 µM (inactive) |  |  |
| Cc1cc(C)c(-n2[nH]c(=O)n(C)c2=O)c(C)c1 | > 100 µM (inactive) | > 100 µM (inactive) | > 100 µM (inactive) | > 100 µM (inactive) | > 100 µM (inactive) | > 100 µM (inactive) | > 100 µM (inactive) | > 100 µM (inactive) | > 100 µM (inactive) | > 100 µM (inactive) | > 100 µM (inactive) | > 100 µM (inactive) | > 100 µM (inactive) | > 100 µM (inactive) | > 100 µM (inactive) | > 100 µM (inactive) | > 100 µM (inactive) | > 100 µM (inactive) |  |  |
| CC(C)(C)N(Cc1ccoc1)C(=O)/C=C\[S+]([O-])c1ccccc1 (stereo unspecified) | 10.6 µM (inactive) | 10.2 µM (inactive) | 13.4 µM (inactive) | 11.5 µM (inactive) | 17.2 µM (inactive) | 6.79 µM (inactive) | 22.8 µM (inactive) | 21.2 µM (inactive) | 12.9 µM (inactive) | 31 µM (inactive) | 17.5 µM (inactive) | 21.8 µM (inactive) |  | 14.5 µM (inactive) | 25.9 µM (inactive) | 22.9 µM (inactive) | 19.9 µM (inactive) | 10.7 µM (inactive) |  |  |
| COC(=O)NN1C(=O)C(=P(c2ccccc2)(c2ccccc2)c2ccccc2)C(C(=O)OC)=C1C |  | > 100 µM (inactive) | > 100 µM (inactive) |  | > 100 µM (inactive) |  | > 100 µM (inactive) |  | > 100 µM (inactive) | > 100 µM (inactive) | > 100 µM (inactive) | > 100 µM (inactive) | > 100 µM (inactive) | > 100 µM (inactive) | > 100 µM (inactive) | > 100 µM (inactive) |  |  | > 100 µM (inactive) | > 100 µM (inactive) |
| O=C(O)/C=N\N=c1[nH]c2ccccc2[nH]1 | > 100 µM (inactive) | > 100 µM (inactive) | > 100 µM (inactive) | > 100 µM (inactive) | > 100 µM (inactive) | > 100 µM (inactive) | > 100 µM (inactive) | > 100 µM (inactive) | > 100 µM (inactive) | > 100 µM (inactive) | > 100 µM (inactive) | > 100 µM (inactive) | > 100 µM (inactive) | > 100 µM (inactive) | > 100 µM (inactive) | > 100 µM (inactive) | > 100 µM (inactive) | > 100 µM (inactive) |  |  |
| CSc1ccccc1P(c1ccccc1SC)c1ccccc1SC |  | > 100 µM (inactive) | > 100 µM (inactive) | > 100 µM (inactive) | > 100 µM (inactive) | > 100 µM (inactive) | > 100 µM (inactive) | > 100 µM (inactive) | > 100 µM (inactive) | > 100 µM (inactive) |  | > 100 µM (inactive) | > 100 µM (inactive) | > 100 µM (inactive) | > 100 µM (inactive) |  |  | > 100 µM (inactive) |  |  |
| COc1c(OC)c(OC)c2c(c1OC)c(=O)c1ccccc1n2C [MELICOPICINE] | > 100 µM (inactive) | > 100 µM (inactive) | > 100 µM (inactive) | > 100 µM (inactive) | > 100 µM (inactive) | > 100 µM (inactive) | > 100 µM (inactive) | 73.5 µM (inactive) | > 100 µM (inactive) | > 100 µM (inactive) | > 100 µM (inactive) | > 100 µM (inactive) |  | > 100 µM (inactive) | > 100 µM (inactive) | > 100 µM (inactive) | > 100 µM (inactive) | > 100 µM (inactive) |  |  |
| COC1CCC2C(=O)CCCC2O1 (stereo unspecified) |  | > 100 µM (inactive) | > 100 µM (inactive) |  | > 100 µM (inactive) |  | > 100 µM (inactive) |  | > 100 µM (inactive) | > 100 µM (inactive) | > 100 µM (inactive) |  | > 100 µM (inactive) | > 100 µM (inactive) | > 100 µM (inactive) | > 100 µM (inactive) | > 100 µM (inactive) |  | > 100 µM (inactive) | > 100 µM (inactive) |
| O=S1(=O)C[C@H](NCc2ccccc2)[C@H](NCc2ccccc2)C1 | 56.5 µM (inactive) | > 100 µM (inactive) | > 100 µM (inactive) | > 100 µM (inactive) | > 100 µM (inactive) | > 100 µM (inactive) | > 100 µM (inactive) | 61.5 µM (inactive) | > 100 µM (inactive) |  | 17.6 µM (inactive) | > 100 µM (inactive) | > 100 µM (inactive) | > 100 µM (inactive) | > 100 µM (inactive) | > 100 µM (inactive) | > 100 µM (inactive) | 94.2 µM (inactive) |  |  |
| COc1ccc(N[C@H](C[S+]([O-])c2ccc(C)cc2)C(F)(F)C(F)(F)F)cc1 (stereo partly specified) |  | > 100 µM (inactive) | 68.1 µM (inactive) | > 100 µM (inactive) | 97.3 µM (inactive) | > 100 µM (inactive) | 65.2 µM (inactive) | > 100 µM (inactive) | 43.5 µM (inactive) | > 100 µM (inactive) | 71.4 µM (inactive) | > 100 µM (inactive) | > 100 µM (inactive) | > 100 µM (inactive) | 31 µM (inactive) | > 100 µM (inactive) | > 100 µM (inactive) | 85.1 µM (inactive) |  |  |
| Nc1nnc(O)c2c1c(I)cn2C1OC(CO)C(O)C1O (stereo unspecified) |  | 0.0904 µM (active) | 1.89 µM (inactive) |  | 0.64 µM (active) |  | 1.3 µM (inactive) |  | 0.5 µM (active) | 5.56 µM (inactive) |  | 1.18 µM (inactive) | 0.778 µM (active) | 1.52 µM (inactive) | 3.04 µM (inactive) | 0.122 µM (active) | 2.15 µM (inactive) |  | 0.646 µM (active) | 1.17 µM (inactive) |
| CCCCOc1ccc2c(c1)CC[C@@H]1[C@@H]2CC[C@]2(C)C(=O)N(CCCC)C(=O)C[C@@H]12 | 25.1 µM (inactive) |  | 26.3 µM (inactive) | > 100 µM (inactive) | > 100 µM (inactive) | > 100 µM (inactive) |  | > 100 µM (inactive) | > 100 µM (inactive) | > 100 µM (inactive) | > 100 µM (inactive) |  | > 100 µM (inactive) | > 100 µM (inactive) | > 100 µM (inactive) | > 100 µM (inactive) |  | 87.9 µM (inactive) |  |  |
